Measurements published in the NIST ThermoML archive (doi:10.1016/j.fluid.2014.12.036).
± gives the expanded uncertainty stated by the source.

Conditions: Crystal; visual observation

SMILES | Normal melting temperature
CCCCCCCCCCCCCCCC [hexadecane] | 18.4 ± 0.4 °C
CCCCCCCCCCCCCC [tetradecane] | 6.2 ± 0.4 °C
CCCCCCCCCCCCCCCCCC [octadecane] | 28.5 ± 0.4 °C
